Read-outs that look alike come from different tables or passages of the source.
Assays:
[1] = target: T1, Recombinant human c-Cbl (aa 47-435) (Homo sapiens, UniProt P22681); experiment: c-Cbl Biochemical Assay (TR-FRET); settings: hc-Cbl Biochemical Assay (TR-FRET); read-out: TR-FRET hcCbl IC50
T1 sequence (P22681 47-435): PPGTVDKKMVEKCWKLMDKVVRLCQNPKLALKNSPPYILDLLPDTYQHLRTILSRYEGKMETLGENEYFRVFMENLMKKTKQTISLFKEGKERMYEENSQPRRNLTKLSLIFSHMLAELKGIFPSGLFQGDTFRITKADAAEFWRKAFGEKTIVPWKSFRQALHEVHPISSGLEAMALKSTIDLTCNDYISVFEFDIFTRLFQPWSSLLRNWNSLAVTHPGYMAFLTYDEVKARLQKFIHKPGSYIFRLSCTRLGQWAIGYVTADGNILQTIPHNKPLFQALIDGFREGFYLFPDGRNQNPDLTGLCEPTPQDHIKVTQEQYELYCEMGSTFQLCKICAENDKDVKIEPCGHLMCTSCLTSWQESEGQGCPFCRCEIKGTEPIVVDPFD

[2] = target: Recombinant human Cbl-b (aa 36-427) (Homo sapiens, UniProt Q13191); experiment: Cbl-b Biochemical Assay (TR-FRET); settings: read-out: TR-FRET hCbl-b IC50
[3] = test system: Jurkat (clone E6-1) cells with NFAT luciferase reporter; experiment: Jurkat reporter assay (NFAT Luciferase); type: cell-based; settings: Homo sapiens
[4] = Jurkat NFAT luciferase reporter cells, anti-CD3 stimulation, 6 hr, read-out: Jurkat NFAT EC50

Recombinant human Cbl-b (aa 36-427), sequence (Q13191 36-427): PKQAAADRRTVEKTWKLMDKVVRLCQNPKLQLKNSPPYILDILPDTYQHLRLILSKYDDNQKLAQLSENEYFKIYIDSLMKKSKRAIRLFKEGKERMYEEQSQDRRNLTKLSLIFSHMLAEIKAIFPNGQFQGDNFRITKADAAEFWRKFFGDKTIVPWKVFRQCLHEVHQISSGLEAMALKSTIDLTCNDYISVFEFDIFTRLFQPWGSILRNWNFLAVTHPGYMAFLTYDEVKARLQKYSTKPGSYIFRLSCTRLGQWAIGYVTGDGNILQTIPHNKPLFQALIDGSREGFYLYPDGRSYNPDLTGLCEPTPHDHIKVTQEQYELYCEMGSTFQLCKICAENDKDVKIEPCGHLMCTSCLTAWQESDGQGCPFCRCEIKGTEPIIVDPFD

IC50 [1]	IC50 [2]	EC50 [3, 4]	Structure (SMILES)	EC50 ([3]; Jurkat, 6 h, read-out: Jurkat NFAT EC50 (μM))
< 200 nM	< 200 nM	< 0.2 µM	Cc1cc(CNCC2CCC2)cc2nc(-c3cccc(-c4ccc(F)cc4-c4nncn4C)c3)oc12 [GU-1, 1-Cyclobutyl-N-((2-(4′-fluoro-2′-(4-methyl-4H-1,2,4-triazol-3-yl)-[1,1′-biphenyl]-3-yl)-7-methylbenzo[d]oxazol-5-yl)methyl)methanamine]	
< 200 nM	< 200 nM	0.2 to 1 µM	Cn1cnnc1-c1cc(F)ccc1-c1cccc(-c2nc3cc(CN[C@@H]4C[C@H](O)C4(C)C)cc(C(F)(F)F)c3o2)c1 [GP-2, (1S,3R)-3-(((2-(4′-Fluoro-2′-(4-methyl-4H-1,2,4-triazol-3-yl)-[1,1′-biphenyl]-3-yl)-7-(trifluoromethyl)benzo[d]oxazol-5-yl)methyl)amino)-2,2-dimethylcyclobutan-1-ol, Formic Acid]	
< 200 nM	< 200 nM	0.2 to 1 µM	Cn1cnnc1-c1cc(F)ccc1-c1cccc(-c2cn3ccc(CN[C@@H]4CCC[C@@H]4O)cc3n2)c1 [GO-2, (1S,2R)-2-(((2-(4′-Fluoro-2′-(4-methyl-4H-1,2,4-triazol-3-yl)-[1,1′-biphenyl]-3-yl)imidazo[1,2-a]pyridin-7-yl)methyl)amino)cyclopentan-1-ol]	
< 200 nM	< 200 nM	< 0.2 µM	Cn1cnnc1-c1cc(F)ccc1-c1cccc(-c2nc3cc(CN[C@@H]4CCC[C@@H]4O)c(F)cc3o2)c1 [IP-7, (1S,2R)-2-(((6-Fluoro-2-(4′-fluoro-2′-(4-methyl-4H-1,2,4-triazol-3-yl)-[1,1′-biphenyl]-3-yl)benzo[d]oxazol-5-yl)methyl)amino)cyclopentan-1-ol]	
< 200 nM	< 200 nM	0.2 to 1 µM	Cn1cnnc1-c1cc(F)ccc1-c1cccc(-c2nc3cc(CN[C@@H]4CCC[C@@H]4O)ccc3s2)c1 [ET-8, (1S,2R)-2-(((2-(4′-Fluoro-2′-(4-methyl-4H-1,2,4-triazol-3-yl)-[1,1′-biphenyl]-3-yl)benzo[d]thiazol-5-yl)methyl)amino)cyclopentan-1-ol]	
< 200 nM	< 200 nM	< 0.2 µM	Cn1cnnc1-c1cc(F)ccc1-c1cccc(-c2nc3cc(CNC4CC4)cc(C(F)(F)F)c3o2)c1 [HO-2, N-((2-(4′-Fluoro-2′-(4-methyl-4H-1,2,4-triazol-3-yl)-[1,1′-biphenyl]-3-yl)-7-(trifluoromethyl)benzo[d]oxazol-5-yl)methyl)cyclopropanamine]	
200 to 1000 nM	1000 to 10000 nM	1 to 10 µM	CC(=O)NCc1cc(C(F)(F)F)c2oc(-c3cccc(-c4ccc(F)cc4-c4nncn4C)c3)nc2c1 [II-1, N-((2-(4′-Fluoro-2′-(4-methyl-4H-1,2,4-triazol-3-yl)-[1,1′-biphenyl]-3-yl)-7-(trifluoromethyl)benzo[d]oxazol-5-yl)methyl)acetamide]	
< 200 nM	< 200 nM	< 0.2 µM	Cn1cnnc1-c1cc(F)ccc1-c1cc(-c2nc3cc(CN[C@@H]4CCC[C@@H]4O)cc(F)c3o2)cc(C2CC2)c1 [JM-4, (1S,2R)-2-(((2-(5-Cyclopropyl-4′-fluoro-2′-(4-methyl-4H-1,2,4-triazol-3-yl)-[1,1′-biphenyl]-3-yl)-7-fluorobenzo[d]oxazol-5-yl)methyl)amino)cyclopentan-1-ol]	
< 200 nM	< 200 nM	< 0.2 µM	COc1cc(CNCC2CCCC2)cc2nc(-c3cccc(-c4ccc(F)cc4-c4nncn4C)c3)oc12 [FN-1, 1-Cyclopentyl-N-((2-(4′-fluoro-2′-(4-methyl-4H-1,2,4-triazol-3-yl)-[1,1′-biphenyl]-3-yl)-7-methoxybenzo[d]oxazol-5-yl)methyl)methanamine]	
< 200 nM	< 200 nM	< 0.2 µM	C[C@H](NCc1cc(C(F)(F)F)c2oc(-c3cccc(-c4ccc(F)cc4-c4nncn4C)c3)nc2c1)C1CCC1 [GW-2, (S)-1-Cyclobutyl-N-((2-(4′-fluoro-2′-(4-methyl-4H-1,2,4-triazol-3-yl)-[1,1′-biphenyl]-3-yl)-7-(trifluoromethyl)benzo[d]oxazol-5-yl)methyl)ethan-1-amine]	
< 200 nM	< 200 nM	< 0.2 µM	Cn1cnnc1-c1cc(F)ccc1-c1cc(-c2nc3cc(CNCC(C)(C)O)cc(F)c3o2)cc(C2CC2)c1 [JQ-1, 1-(((2-(5-Cyclopropyl-4′-fluoro-2′-(4-methyl-4H-1,2,4-triazol-3-yl)-[1,1′-biphenyl]-3-yl)-7-fluorobenzo[d]oxazol-5-yl)methyl)amino)-2-methylpropan-2-ol]	

Continued, compound first:

Structure (SMILES)	IC50 [1]	IC50 [2]	EC50 [3, 4]	EC50 ([3]; Jurkat, 6 h, read-out: Jurkat NFAT EC50 (μM))
Cc1cc(C(C)NCC2CCC2)cc2nc(-c3cc(-c4ccc(F)cc4-c4nncn4C)cc(C4CC4)n3)oc12 (stereo not drawn) [AGU-1, (cyclobutylmethyl)[1-(2-{6-cyclopropyl-4-[4-fluoro-2-(4-methyl-1,2,4-triazol-3-yl)phenyl]pyridin-2-yl}-7-methyl-1,3-benzoxazol-5-yl)ethyl]amine]	< 200 nM	< 200 nM	< 0.2 µM	
C[C@@H]1CN(Cc2cc(C(F)(F)F)c3[nH]c(-c4cccc(-c5ccc(F)cc5-c5nncn5C)c4)nc3c2)CCO1 [BL-2, (R)-4-((2-(4′-Fluoro-2′-(4-methyl-4H-1,2,4-triazol-3-yl)-[1,1′-biphenyl]-3-yl)-7-(trifluoromethyl)-1H-benzo[d]imidazol-5-yl)methyl)-2-methylmorpholine]	1000 to 10000 nM	< 200 nM	1 to 10 µM	
Cn1cnnc1-c1cc(F)ccc1-c1cccc(-c2nc3cc(CN[C@H]4CCC[C@H]4O)cc(C(F)(F)F)c3o2)c1 [HI-2, (1R,2S)-2-(((2-(4′-Fluoro-2′-(4-methyl-4H-1,2,4-triazol-3-yl)-[1,1′-biphenyl]-3-yl)-7-(trifluoromethyl)benzo[d]oxazol-5-yl)methyl)amino)cyclopentan-1-ol]	< 200 nM	< 200 nM	< 0.2 µM	
C[C@@H](c1cc(C(F)(F)F)c2[nH]c(-c3cccc(C4(Cc5nncn5C)COC4)c3)nc2c1)N1CCC2(CC2)C1 [ACM-1, (S)-5-(1-(5-Azaspiro[2.4]heptan-5-yl)ethyl)-2-(3-(3-((4-methyl-4H-1,2,4-triazol-3-yl)methyl)oxetan-3-yl)phenyl)-7-(trifluoromethyl)-1H-benzo[d]imidazole]	10000 to 50000 nM	200 to 1000 nM	1 to 10 µM	
C[C@H]1CCCN(Cc2cc(F)c3oc(-c4cc(-c5ccc(C#N)cc5-c5nncn5C)cc(C5CC5)n4)nc3c2)C1 [AGI-1, 4-[2-Cyclopropyl-6-(7-fluoro-5-{[(3S)-3-methylpiperidin-1-yl]methyl}-1,3-benzoxazol-2-yl)pyridin-4-yl]-3-(4-methyl-1,2,4-triazol-3-yl)benzonitrile]	< 200 nM	< 200 nM	< 0.2 µM	
Cn1cnnc1-c1cc(F)ccc1-c1ccnc(-c2nc3cc(CN[C@@H]4CCC[C@@H]4O)cc(C(F)(F)F)c3o2)c1 [AEG-8, (1S,2R)-2-{[(2-{4-[4-Fluoro-2-(4-methyl-1,2,4-triazol-3-yl)phenyl]pyridin-2-yl}-7-(trifluoromethyl)-1,3-benzoxazol-5-yl)methyl]amino}cyclopentan-1-ol]	< 200 nM	< 200 nM	< 0.2 µM	
CN(C)Cc1cc2nc(-c3cc(-c4ccc(F)cc4-c4nncn4C)cc(C4CC4)n3)oc2c(F)c1F [AHH-3, [(2-{6-cyclopropyl-4-[4-fluoro-2-(4-methyl-1,2,4-triazol-3-yl)phenyl]pyridin-2-yl}-6,7-difluoro-1,3-benzoxazol-5-yl)methyl]dimethylamine]	200 to 1000 nM	< 200 nM		1 to 10 µM
Cn1cnnc1-c1cc(F)ccc1-c1cccc(-c2nc3cc([C@H](CO)N4CCC4)cc(C(F)(F)F)c3o2)c1 (single isomer, unassigned) [DO-6]	200 to 1000 nM	< 200 nM	1 to 10 µM	
C[C@H]1CCCN(Cc2cc(C(F)(F)F)c3oc(-c4cccc(-c5ccccc5-c5nncn5C)c4)nc3c2)C1 [Example Q-3, (S)-2-(2′-(4-Methyl-4H-1,2,4-triazol-3-yl)-[1,1′-biphenyl]-3-yl)-5-((3-methylpiperidin-1-yl)methyl)-7-(trifluoromethyl)benzo[d]oxazole]	1000 to 10000 nM	200 to 1000 nM	1 to 10 µM	
CO[C@H]1CCCC1NCc1cc(C(F)(F)F)c2oc(-c3cccc(-c4ccc(F)cc4-c4nncn4C)c3)nc2c1 (stereo in doubt) [CV-2, (1S,2S)—N-((2-(4′-Fluoro-2′-(4-methyl-4H-1,2,4-triazol-3-yl)-[1,1′-biphenyl]-3-yl)-7-(trifluoromethyl)benzo[d]oxazol-5-yl)methyl)-2-methoxycyclopentan-1-amine]	< 200 nM	< 200 nM	0.2 to 1 µM	
Cn1cnnc1-c1cc(F)ccc1-c1cccc(-c2nc3cc(CN[C@@H]4CC[C@@H]4O)cc(C(F)(F)F)c3o2)c1 [DU-2, (1S,2R)-2-(((2-(4′-Fluoro-2′-(4-methyl-4H-1,2,4-triazol-3-yl)-[1,1′-biphenyl]-3-yl)-7-(trifluoromethyl)benzo[d]oxazol-5-yl)methyl)amino)cyclobutan-1-ol]	< 200 nM	< 200 nM	< 0.2 µM	

Source: US20250163038A1, “CBL-B MODULATORS AND USES THEREOF” (Nimbus Clio, Inc., priority 2021, published 2025)
